Reference: article PMC9411606, “Control cell migration by engineering integrin ligand assembly” (Nature Communications, 2022)

Experiments:
[1] = Circular dichroism (CD) spectroscopy of peptide assemblies; type: physicochemical; conditions: 100 µM, aqueous, 0.5 mm path
Procedure: CD spectra of the peptide assemblies in aqueous solutions were recorded under the nitrogen atmosphere using a spectrophotometer JASCO J-820 (Jasco, Japan). A quartz cuvette with 0.5 mm path length was used as a sample container. Continuous scanning mode is applied. And each sample is scanned three times to obtain an averaged spectrum.

HuH-7 cells [2] = test: Traction stress analysis; type: cell-based, human; conditions: HuH-7 on PDMS, 12 hr, n = 18-21 cells
Procedure: mRuby-Lifeact-7 transfected HuH-7 cells were applied for the traction force microscopy experiments. The in situ fluorescent images of the cell was applied to define the area of measurement. The cells were seeded on a PDMS substrate functionalized with 0.2 µm FluoSpheres™ Carboxylate-Modified Microspheres (F8807, Invitrogen) at a density of approximately 6000 cells/cm^2. The substrate was fabricated by following the published protocol on (STAR) Protocol[45], except that there were no ECM proteins coated on the substrate here. […] After being pretreated with peptides for 12 hr, the samples were imaged by a 100×/1.35 Silicon UPlanSApo objective, and the bead displacement obtained from confocal imaging was converted into force-displacement fields following established protocol[47],[48]. Briefly, Images of beads with and without cell attachment were first aligned to correct experimental drift using ImageJ plugin “align slices in stack”. The displacement field was subsequently calculated by another ImageJ plugin “PIV (Particle Image Velocimetry)”. The cross-correlation PIV with a size of 64 × 32 pixels was used on all images for the PIV analysis to produce the position and vector field of the bead displacement. With the displacement field obtained from the PIV analysis, the traction force field was then reconstructed by the ImageJ plugin “FTTC”. […]

HuH-7 cells [3] = test: Random cell migration assay; type: cell-based, human
Procedure: HuH-7 cells were labeled with fluorescent protein fusion constructs or Hoechst 33342. After being treated with or without the peptides for 12 hr, the cells were tracked with a 20x/0.8 Plan-Apochromat objective for 6 h. The centroids of labeled cells were tracked using the TrackMate plugin (https://imagej.net/plugins/trackmate/) in ImageJ[44]. A custom MATLAB script generated by a person was applied to reconstruct the cell migration trajectory. […]
The directionality of the cell movement was described by the persistence index and the persistent time, the persistence index was defined by the ratio of the vectorial distance (the distance between the origin and the endpoint of the movement) and the length of the total path and the persistent time is defined as the time it takes for the cell to change the initial direction by 90°[45].

[4] = test system: integrin α3β1 expressing cells (HuH-7, HeLa, HepG2, A549, MKN1, and U-87 MG); test: Wound healing assay, integrin α3β1 expressing cells; type: cell-based, human; conditions: 10-200 µM
Procedure: (§1) Healthy cells were seeded in 96-well Image Lock plates (Essen Bioscience, UK). Each well contained 2 ×10^4 to 5 × 10^4 cells in 100 μL of complete cell culture medium. Cell monolayer with approximately 90% confluence formed after 12 hr and cells were next starved in serum-free culture medium for 12 hrs. Homogenous scratch wounds with a width of about 700 μm were made by an Essen BioScienceWound Maker. The detached cells were washed with Dulbecco’s Buffered Saline (DPBS, Gibco) 3 times. Cells were incubated with 100 μL of culture medium containing 0.5 % FBS and desired concentration of each peptide. Wound closure was monitored by an IncucyteS3 (Essen Bioscience) with a 10x objective. Images for each well were acquired every 2 hr to 8 hr for 2 days or until the wounds were closed completely. The wound healing rate was quantified by Incucyte Scratch Wound Analysis Module (Essen Bioscience). The experiments were repeated at least 3 times, and the results were presented as mean ± standard deviation of at least 3 independent experiments.

[5] = TEM imaging / preparation of peptide assemblies (nanofilament size and stability); type: physicochemical; conditions: in water
Procedure: To prepare the stocks of peptide assembled nanofilaments, the required amount of peptide was dissolved in Milli-Q water at 100 mM (for FFF) or 10 mM (for the other peptides, and peptides mixture) and adjust the solution to reach a final pH of 7.0 using 1 N NaOH solution. To stabilize the peptide assemblies, the stock solutions were stored at room temperature for at least 24 h before application. The obtained nanofilaments were very stable and were not affected by simple dilution at neutral pH. Therefore, to prepare the working solution, the desired amount of stock solution was diluted using Milli-Q water or the culture medium. Stand the working solutions for 30 min to evenly distribute nanofilaments in the working solution before applying them to the experiments.
To prepare TEM samples, 5 μL peptide solution was dropped on a glow-charged copper grid (400 mesh) coated with carbon film. After removing excess solution, the grid was gently washed three times to remove excess nanofilaments. Then the sample grid was negatively stained using 1.0% (w/v) uranyl acetate and air-dried. TEM images were captured at a high vacuum using a transmission electron microscope (JEM-1230R, JEOL, Japan).

HuH-7 cells [6] = test: Cell adhesion assay, HuH-7; type: cell-based, human; conditions: FFFIKLLI pre-coated dishes
Procedure: The 96-well microplates wells were coated with peptide assemblies (the concentration of FFFIKLLI was kept at 100 μM constantly) for 12 hr at 37 °C before blocked with the Blocking Buffer (2% BSA, 1 mM CaCI2 and 1 mM MnCI2 in PBS) for 1 hr at 37 °C. Cells were collected from culture dishes and suspended in the Blocking Buffer containing anti-laminin-5 (P3H9-2, MAB1947, Chemicon, 5 μg/ml), anti-fibronectin (IST-9, ab6328, Abcam, 20 μg/ml) or IgG isotype control (20 μg/ml, Abcam) before immediately seeded to the coated well (20,000 cells/well) and allowed to incubate at 37 °C for 1 h. The wells were washed for three times with the Blocking Buffer and the phase-contrast images were captured by IncucyteS3 (Essen Bioscience) with a 10× objective.

[7] = test system: integrin knockdown HuH-7 cells; test: Wound healing assay, integrin knockdown HuH-7; type: cell-based, human; conditions: 48 hr wound healing, 100 µM, n = 6
Procedure: as §1
Integrin β1 shRNA plasmid (#sc-29375-SH), Integrin α3 shRNA plasmid (#sc-35684-SH), Integrin α6 shRNA plasmid (#sc-43129-SH), and control shRNA plasmid-A (#sc-108060) were purchased from Santa Cruz Biotechnology for knockdown of the target integrins. The knockdown efficiency was evaluated by western blotting.

Sequence: FFFIKLLI [assembling ligand: FFF coupled to the N-terminus of IKLLI; self-assembles into nanofilaments]
- secondary structure of self-assembly [1]: random coil structure
- Average Traction Stress (HuH-7 cells [2]): 0.101 kPa
- Maximal Traction Stress (HuH-7 cells [2]): 0.828 kPa
- cell motility, vin258-expressing cells (HuH-7 cells [3]; HuH-7 expressing vin258, 12 h): suppression effect on cell motility was remained
- migration speed (HuH-7 cells [3]; Tiam1/Rac1-activated HuH-7, n = 230, 232 cells, p = 0.4508 vs Ctrl): 0.3729 µm/min
- migration speed (HuH-7 cells [3]; vin258-transfected HuH-7, mean, n = 169, 176 cells): 0.140 µm/min
- effect on cell migration [4]: suppression effect
- nanofilament width ([5]; TEM, FFFIKLLI 100 μM): ~ 100 nm
- nanofilament stability ([5]; neutral pH, simple dilution): stable
- attached cells (HuH-7 cells [6]; IgG, n = 30): 171.2 Counts / mm2
- attached cells (HuH-7 cells [6]; anti-fibronectin IST-9, n = 30): 162.2 Counts / mm2
- attached cells (HuH-7 cells [6]; anti-laminin-5 P3H9-2, n = 30): 157.4 Counts / mm2
- suppression efficacy after knockdown of α3 or β1 integrin subunit [7]: attenuated the suppression efficacy
- suppression efficacy after knockdown of α6 subunit (attenuated?) [7]: did not
